Data taken from PubChem BioAssay AID449759 (The Scripps Research Institute Molecular Screening Center, 2010).
The source made the active and inactive calls. No rule for the calls is given here.

Each compound was assayed on NIH 3T3 cells, IRF-1 mRNA qPCR, IFNg-stimulated (assay: enhancement of STAT1 target gene IRF-1 transcripts – SYBR qPCR, NIH 3T3 cells, powder samples, counter-screen for STAT1 activator project, late-stage follow-up (AID 449759)). Conditions: at 10 µM; active compounds read high.

SMILES | fold change
CCN(CC)c1ccc2cc(C(=O)Nc3ccccn3)c(=O)oc2c1 | 0.85 (inactive)
Cc1ccc(C(=O)Nc2nc3ccccc3s2)s1 | 0.93 (inactive)
O=C(/C=C/Nc1ccccc1F)c1ccc(Br)cc1 | 0.77 (inactive)
COc1ccc2[nH]c3c(c2c1)CCn1c-3nc2ccccc2c1=O | 0.89 (inactive)
CCOC(=O)/C(C#N)=C/c1cc(C)n(-c2ccccc2)c1C | 0.7 (inactive)
COc1ccc(-c2cc(C)nc3c(-c4ccccc4)cnn23)cc1 | 0.81 (inactive)
N#C/C(=C\c1ccc(N2CCOCC2)o1)c1nc2ccccc2[nH]1 | 0.5 (inactive)
COc1ccc(-c2csc(N3C(=O)CNC3=S)n2)cc1 | 0.34 (inactive)
